One block for each compound: values may come before it.
Legend:
Assay type in all cases: cell-based, Human
[1] = system: ARE sequence of the glutathione S-transferase Ya gene (SEQ ID NO: 5); experiment: Luciferase reporter assay, 3xARE/RBGP-Luc (ARE of SEQ ID NO: 5) in HepG2; settings: HepG2, FIG. 4
Excerpt: (§1) Then, 3 copies (Mol. Cell. Biol., 14, 700-712 (1994)) of various oligonucleotides (32-mers) containing the MARE sequences of SEQ ID NO: 1 through 7, comparative or control MARE sequences (SEQ ID NO: 1-4, 6 and 7), and an ARE sequence (SEQ ID NO: 5) were respectively inserted into the XhoI site of pUC118 vector with a modified poly-linker sequence. Further, the portion containing the 3 repeats of MARE sequence was excised at KpnI/BamHI site and inserted into the KpnI/BamHI site of pRBGP3. As an example of the above 32mer sequence, the one containing MARE of SEQ ID NO: 2 is shown in SEQ ID NO: 20. Here, tcgag represents the XhoI site.
(§2) Thus obtained were 3xMARE/RBGP-Luc and 3xARE/RBGP-Luc plasmids containing 3 repeats of 32 oligonucleotide sequences containing the 13 oligonucleotides shown in SEQ ID NO: 1 through 7 (MARE sequences, ARE sequences, and the corresponding comparative and control sequences). SEQ ID NO: 21 is an example of the sequence contained in the resulting 3xMARE/RBGP-Luc using SEQ ID NO: 2 as MARE. The obtained recombinant expression vectors were used for subsequent transfections.
(§3) Transfections were carried out using SUPERFECT Transfection Reagent (Qiagen) according to the protocol accompanying the reagent. Human hepatocellular calcinoma cell line HepG2 was subcultured on a 35 mm plate and, after 24 hours, the transfection was carried out. Thus, a transfection solution containing 100 μl of a vector solution containing 0.25 μg of the above plasmid, 100 μl of SUPERFECT transfection reagent, and 600 μl of DMEM serum-free medium were added to a PBS-washed cell plate. After 2 hours of incubation at 37° C., the medium was changed to 10% FCS-supplemented DMEM. After 2 hours, stimulating reagents containing various heavy metal compounds inclusive of auranofin; Ridaura™, product of Sigma; 2,3,4,6-tetra-O-acetyl-1-thio-β-D-glucopyranosato-S) (triethylphosphine)gold were added and the culture was continued. The luciferase activity in the cells was assayed 15-18 hours later.
(§4) The assay of luciferase activity was carried out using Dual-Luciferase Reporter Assay System (product of Promega) according to the manufacture's protocol.
(§5) To the culture plate was added 100 μl of the cytolytic buffer included in the […] kit to lyse the cells, and using a bench-top centrifuge, the lysate was centrifuged at 15,000 rpm for 5 seconds. The supernatant, 20 μl, of the lysate was mixed with 100 μl of the attached reagent LARII and the first chemiluminescence was measured with a luminometer. Then, 100 μl of the stopper (Stop & Glo Reagent) was added and the second chemniluminescence was measured.
(§6) The ratio of the first and second chemiluminescences was determined to calculate luciferase activity.
The results are shown in FIG. 4 similar to FIG. 1 (the abbreviations of reagents added are the same as above; each luciferase activity ratio was calculated with the control value found by culture of the vector in the absence of the test reagent being taken as 1).

[2] = system: MARE sequence of SEQ ID NO: 2; experiment: Luciferase reporter assay, 3xMARE/RBGP-Luc (MARE of SEQ ID NO: 2) transfected into HepG2
Excerpt: (a) Construction of a Recombinant Vector
As the basal skeleton of the recombinant vector, pGL2-Basic (product of Promega) was used. This vector is a luciferse expression vector.
The SV40 promoter of the above pGL2-Basic was substituted with oligonucleotides (SEQ ID NO: 8 and NO: 9, 41-mer each) containing the TATA sequence of rabbit β-globin promoter at Bgl II/Hind III site to construct pRBGP3 (Nature, 367, 568-572 (1994)).
as §1, §2, §3, §4, §5, §6
The recombinant expression vector (reporter plasmid) ligated with the MARE sequence of SEQ ID NO: 2 as constructed under (a) above, namely 3xMARE/RBGP-Luc, was used. Stimulating reagents containing various heavy metal compounds, namely 100 μM each of manganese chloride (MnCl2), cobalt chloride (CoCl2), nickel chloride (NiCl2), copper sulfate (CuSO4), zinc sulfate (ZnSO4), cadmium sulfate (CdSO4), mercury chloride (HgCl2) and sodium tetrachloroaurate(III) (Na(AuCl4)) and 5 μM of auranofin, were respectively added and the cells were cultured by the above procedure (b) for 18 hours. Then, luciferase activity was measured by the procedure described under (c) above. […]

[3] = system: MARE sequence of SEQ ID NO: 1; experiment: Luciferase reporter assay, 3xMARE/RBGP-Luc (MARE of SEQ ID NO: 1) in HepG2; settings: 5 μM auranofin vs absence, 18 hours, HepG2, FIG. 3
Excerpt: as §1, with “site. […]” for “site.”
as §5
(§7) The ratio of the first and second chemiluminescences was determined to calculate luciferase activity. […]

[4] = system: MARE sequence of SEQ ID NO: 3; experiment: Luciferase reporter assay, 3xMARE/RBGP-Luc (MARE of SEQ ID NO: 3) in HepG2; settings: 5 μM auranofin vs absence, 18 hours, HepG2, FIG. 3
Excerpt: as §1, with “site. […]” for “site.”
as §5, §7

[5] = system: MARE sequence of SEQ ID NO: 4; experiment: Luciferase reporter assay, 3xMARE/RBGP-Luc (MARE of SEQ ID NO: 4) in HepG2; settings: 5 μM auranofin vs absence, 18 hours, HepG2, FIG. 3
Excerpt: as §1, with “site. […]” for “site.”
as §5, §7

[6] = system: control MARE of SEQ ID No: 6; experiment: Luciferase reporter assay, control MARE of SEQ ID NO: 6 in HepG2; settings: 5 μM auranofin vs absence, 18 hours, HepG2, FIG. 3
Excerpt: as §1, with “site. […]” for “site.”
as §5, §7

[7] = system: AP-1 (activator protein-1) element of SEQ ID NO: 7; experiment: Luciferase reporter assay, AP-1 element of SEQ ID NO: 7 in HepG2; settings: 5 μM auranofin vs absence, 18 hours, HepG2, FIG. 3
Excerpt: as §1, with “site. […]” for “site.”
as §5, §7

[8] = system: 5xSRE (c-fos) serum response element; experiment: Luciferase reporter assay, positive control 5xSRE (c-fos) in HepG2; settings: 5 μM auranofin vs absence, 18 hours, HepG2, FIG. 3
Description: as §3, with “After 2 hours, stimulating reagents containing various heavy metal compounds inclusive of auranofin; Ridaura™, product of Sigma; 2,3,4,6-tetra-O-acetyl-1-thio-β-D-glucopyranosato-S) (triethylphosphine)gold were added and the culture was continued. The luciferase activity in the cells was assayed 15-18 hours later.” left out
as §5, §7
(§8) Each of the above vectors was cultured by the above procedure (b) for 18 hours in the presence of 5 μM auranofin or in the absence thereof and the luciferase activity was measured by the above procedure (c). […]

5xkB (IL2R-a) kB element = experiment: Luciferase reporter assay, positive control 5xkB (IL2R-a) in HepG2; settings: 5 μM auranofin vs absence, 18 hours, HepG2, FIG. 3
Description: as §3, with “After 2 hours, stimulating reagents containing various heavy metal compounds inclusive of auranofin; Ridaura™, product of Sigma; 2,3,4,6-tetra-O-acetyl-1-thio-β-D-glucopyranosato-S) (triethylphosphine)gold were added and the culture was continued. The luciferase activity in the cells was assayed 15-18 hours later.” left out
as §5, §7, §8

[9] = 100 μM heavy metal compound, 18 hours, HepG2, control taken as 1, FIG. 1

- activity ratio (luciferase activity ratio, control taken as 1) ([1]; 500 μM): 21.7±15.4
SMILES: OC[C@H]1O[C@H]([S-])[C@H](O)[C@@H](O)[C@@H]1O.[Au+] [AuTG, (1-thio-D-glucopyranosato)gold]

SMILES: O=C([O-])CC([S-])C(=O)[O-].[Au+].[Na+].[Na+] (centres unmarked) [AuTM, sodium aurothiomalate]
- activity ratio (luciferase activity ratio, control taken as 1) ([1]; 100 μM): 8.1±0.4

SMILES: CC[PH](CC)(CC)[Au][S][C@@H]1O[C@H](COC(C)=O)[C@@H](OC(C)=O)[C@H](OC(C)=O)[C@H]1OC(C)=O [auranofin, (2,3,4,6-tetra-O-acetyl-1-thio-β-D-glucopyranosato-S)(triethylphosphine)gold]
- transcription activity ratio (luciferase activity ratio) ([2]; 5 μM auranofin vs absence, 18 hours, HepG2, FIG. 3, study (3)): 158.7
- luciferase activity in multiples of untreated control (Fold Activation) ([2]; 5 μM auranofin, 18 hours, HepG2, control taken as 1, FIG. 1, study (1)): 142.4 times
- dose dependence of MARE activation (luciferase activity ratio, Fold Activation) ([2]; AUR 0.5-20 μM, AuTG 20-500 μM, AuTM 10-500 μM, HepG2, FIG. 2): outstanding luciferase activation compared with the other two kinds of gold compounds
- transcription activity ratio (luciferase activity ratio) [3]: 53.3
- transcription activity ratio (luciferase activity ratio) [4]: 30.8
- transcription activity ratio (luciferase activity ratio) [5]: 112.9
- action on the reporter (luciferase activity ratio) [6]: does not act on
- action on the reporter (luciferase activity ratio) [7]: does not act on
- action on the reporter (luciferase activity ratio) [8]: does not act on
- action on the reporter (luciferase activity ratio) (5xkB (IL2R-a) kB element): does not act on
- activity ratio (luciferase activity ratio, control taken as 1) ([1]; 5 μM): 102.9±53.4
- activity relative to that of tBHQ ([1]; AUR 5 μM vs tBHQ 60 μM): about 30 times

SMILES: O=S(=O)([O-])[O-].[Cd+2] [cadmium sulfate]
- luciferase activity in multiples of untreated control (Fold Activation) [2, 9]: 27.3

SMILES: [Cl][Co][Cl] [cobalt chloride]
- luciferase activity in multiples of untreated control (Fold Activation) [2, 9]: 6.9

SMILES: [Cl][Hg][Cl] [mercury chloride]
- luciferase activity in multiples of untreated control (Fold Activation) [2, 9]: 10

SMILES: [Cl][Au-]([Cl])([Cl])[Cl].[Na+] [sodium tetrachloroaurate(III)]
- luciferase activity in multiples of untreated control (Fold Activation) [2, 9]: 4.3

SMILES: CC(C)(C)c1cc(O)c(C(C)(C)C)cc1O [tBHQ, 2,5-di-tert-butylhydroquinone]
- activity ratio (luciferase activity ratio, control taken as 1) ([1]; 60 μM): 6.0±3.8

SMILES: O=C(O)CC(S)C(=O)O (centres unmarked) [thiomalate]
- activity ratio (luciferase activity ratio, control taken as 1) ([1]; 100 μM): 2.1±0.6
